Converted amounts (≈) assume the structure as drawn.
What was measured:
[1] = molecular target: T1, Bifunctional purine biosynthesis protein ATIC (Homo sapiens, UniProt P31939); assay: Inhibition of human full length N-terminal His-tagged AICARFT expressed in Escherichia coli BL21 (DE3) using ZMP/10-formyltetrahydrofolate as substrate assessed as decrease in IMP levels after 1 hr by mass spectrometric method
[2] = molecular target: T1, Bifunctional purine biosynthesis protein ATIC; assay: Inhibition of AICARFT in human NCI-H460 cells assessed as increase in ZMP levels using low folate media after 16 hrs by LC-MS method; assay type: cell-based
[3] = Permeability across apical to basolateral side in MDCK cells at 20 uM; assay type: ADME, cell-based, Canis lupus familiaris; conditions: dog
[4] = Plasma concentration in CD-1 mouse at 10 mg/kg, po after 1 hr by LC-MS/MS method; assay type: ADME, organism-based
[5] = Fraction unbound in CD-1 mouse plasma; assay type: ADME, cell-free
Mus musculus [6] = assay: Unbound clearance in CD-1 mouse at 5 mg/kg, iv by LC-MS/MS method; assay type: ADME, organism-based; conditions: in vivo
Mus musculus [7] = assay: Unbound volume of distribution at steady state in CD-1 mouse at 5 mg/kg, iv by LC-MS/MS method; assay type: ADME, organism-based; conditions: in vivo
Mus musculus [8] = assay: Unbound AUC in CD-1 mouse at 5 mg/kg, po by LC-MS/MS method; assay type: ADME, organism-based; conditions: in vivo
[9] = Half life in CD-1 mouse at 5 mg/kg, po by LC-MS/MS method; assay type: ADME, organism-based; conditions: in vivo
Mus musculus [10] = assay: Unbound Cmax in CD-1 mouse at 5 mg/kg, po by LC-MS/MS method; assay type: ADME, organism-based; conditions: in vivo
[11] = Oral bioavailability in CD-1 mouse at 5 mg/kg by LC-MS/MS method; assay type: ADME, organism-based; conditions: in vivo
Mus musculus [12] = assay: In vivo inhibition of AICARFT in tumor of low folate diet fed nude mouse xenografted with human NCI-H460 cells assessed as increase in intratumoral ZMP levels at 0.3 to 30 mg/kg after 4 hrs relative to vehicle-treated control; assay type: functional
Mus musculus [13] = assay: In vivo inhibition of AICARFT in tumor of low folate diet fed nude mouse xenografted with human NCI-H460 cells assessed as increase in circulating AICAr levels at 0.3 to 30 mg/kg after 4 hrs relative to vehicle-treated control; assay type: functional
[14] = Dissociation constant, pKa of the compound; assay type: physicochemical
[15] = Lipophilicity, log D of the compound at pH 7; assay type: physicochemical; conditions: buffer
[16] = Equilibrium aqueous solubility of the compound at pH 2 after 20 hrs by HPLC method; assay type: physicochemical
[17] = Equilibrium aqueous solubility of the compound at pH 6 after 20 hrs by HPLC method; assay type: physicochemical
[18] = Equilibrium aqueous solubility of the compound at pH 7.5 after 20 hrs by HPLC method; assay type: physicochemical
[19] = AUC in CD-1 mouse at 10 mg/kg, po by LC-MS/MS method; assay type: ADME, organism-based; conditions: in vivo
[20] = Clearance in CD-1 mouse at 1 mg/kg, iv by LC-MS/MS method; assay type: ADME, organism-based; conditions: in vivo
[21] = Oral bioavailability in CD-1 mouse at 10 mg/kg by LC-MS/MS method; assay type: ADME, organism-based; conditions: in vivo
[22] = molecular target: T1, Bifunctional purine biosynthesis protein ATIC; assay: Inhibition of human AICARFT
[23] = Antitumor activity against human MDA-MB-231met2 cells xenografted in athymic nude mouse assessed as tumor volume at 5 mg/kg, iv qd administered for 5 days measured after 9 days relative to control; assay type: functional
Mus musculus [24] = assay: Toxicity in athymic nude mouse xenografted with human MDA-MB-231met2 cells assessed as mortality at 5 mg/kg, iv qd administered for 5 days; assay type: organism-based; conditions: in vivo, 120 h
Mus musculus [25] = assay: Toxicity in athymic nude mouse xenografted with human MDA-MB-231met2 cells assessed as body weight loss at 5 mg/kg, iv qd administered for 5 days; assay type: organism-based; conditions: in vivo, 120 h

T1 sequence (P31939 whole entry): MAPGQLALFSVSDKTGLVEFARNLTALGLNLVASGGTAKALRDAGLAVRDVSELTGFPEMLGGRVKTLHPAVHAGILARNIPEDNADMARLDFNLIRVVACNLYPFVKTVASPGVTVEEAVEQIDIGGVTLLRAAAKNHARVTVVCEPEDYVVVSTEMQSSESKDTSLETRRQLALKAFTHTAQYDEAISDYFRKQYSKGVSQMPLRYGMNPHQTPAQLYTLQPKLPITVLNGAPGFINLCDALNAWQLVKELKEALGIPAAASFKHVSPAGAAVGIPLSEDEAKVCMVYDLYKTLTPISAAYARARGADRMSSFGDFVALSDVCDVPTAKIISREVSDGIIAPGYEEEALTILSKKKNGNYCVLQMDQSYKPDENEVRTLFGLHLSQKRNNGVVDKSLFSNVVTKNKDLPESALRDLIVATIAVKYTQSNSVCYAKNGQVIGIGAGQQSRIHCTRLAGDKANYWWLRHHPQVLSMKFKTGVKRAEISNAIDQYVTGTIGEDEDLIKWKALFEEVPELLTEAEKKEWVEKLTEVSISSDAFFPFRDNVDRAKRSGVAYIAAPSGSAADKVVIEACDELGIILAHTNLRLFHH

Row | SMILES | IC50 [1] [nM] | EC50 [2] [nM] | permeability [3] [%] | concentration at 1 h [4] [µM] | fraction unbound [5] | further results
1 | O=c1[nH]ccc2cc(F)c(NS(=O)(=O)c3ccc(N4C[C@H](O)C(F)(F)C4)s3)cc12 | 13 | 31 | 0.34 | 19.3 | 0.02 | –
2 | O=c1[nH]ccc2cc(F)c(NS(=O)(=O)c3ccc(N4CCC[C@H](O)C4)s3)cc12 | 18 | 18 | 0.17 | 6.7 | 0.03 | –
3 | O=c1[nH]ccc2cc(F)c(NS(=O)(=O)c3ccc(N4C[C@@H](O)C(F)(F)C4)s3)cc12 | 12 | 27 | 0.28 | 33 | 0.03 | CL free (Mus musculus [6]): 50 mL/min/kg; Vduss (Mus musculus [7]): 15 L/kg; fAUC (Mus musculus [8]): 2.11 µM·h; half-life [9]: 3.2 h; fCmax (Mus musculus [10]): 293 nM; bioavailability [11]: 55%; fold change (FC) (Mus musculus [12]): >100; fold change (FC) (Mus musculus [13]): 80
4 | O=c1[nH]ccc2cc(F)c(NS(=O)(=O)c3ccc(N4CC[C@H](O)C4)s3)cc12 | – | – | 0.29 | 4.7 | 0.05 | –
5 | O=C1NC(=O)c2cc(NS(=O)(=O)c3ccc(Cl)cc3)ccc21 | 34800 | – | – | – | – | –
6 | O=c1[nH]ccc2cc(F)c(NS(=O)(=O)c3ccc(N4C[C@@H](O)[C@@H](F)C4)s3)cc12 (stereo in doubt) | 7.8 | 7.9 | 0.18 | 9.1 | 0.05 | CL free (Mus musculus [6]): 44 mL/min/kg; Vduss (Mus musculus [7]): 9 L/kg; fAUC (Mus musculus [8]): 1.52 µM·h; half-life [9]: 2.8 h; fCmax (Mus musculus [10]): 232 nM; bioavailability [11]: 33%; fold change (FC) (Mus musculus [12]): >100; fold change (FC) (Mus musculus [13]): 80
7 | N#Cc1ccc(S(=O)(=O)Nc2ccc3cc[nH]c(=O)c3c2)cc1 | 608 | 567 | 0.55 | – | – | pKa [14]: 6.93; logD [15]: 1.7; solubility thermodynamic at 20 h [16]: 30 µg/mL (≈ 92.2 µM); solubility thermodynamic at 20 h [17]: 40 µg/mL (≈ 123 µM); solubility thermodynamic at 20 h [18]: 160 µg/mL (≈ 492 µM); AUC [19]: 16100 ng·h/mL; clearance [20]: 4.47 mL/min/kg; bioavailability [21]: 43%
8 | N#Cc1ccc(S(=O)(=O)Nc2ccccc2)cc1 | > 100000 | – | – | – | – | –
9 | Nc1nc2ccc(NS(=O)(=O)c3ccc(C(=O)N[C@@H](CCC(=O)O)C(=O)O)cc3)cc2c(=O)[nH]1 | 1000 to 5000 | – | – | – | – | Ki [22]: 6 nM
10 | CN(Cc1cnc2nc(N)nc(N)c2n1)c1ccc(C(=O)N[C@@H](CCC(=O)O)C(=O)O)cc1 [METHOTREXATE] | – | – | – | – | – | Activity [23]: 88%; Activity (Mus musculus [24]): Non-Toxic; Activity (Mus musculus [25]): Non-Toxic
11 | N#Cc1ccc(S(=O)(=O)Nc2cccc(C(N)=O)c2)cc1 | 90000 | – | – | – | – | –
12 | N#Cc1ccc(S(=O)(=O)Nc2ccc3nc(N)[nH]c(=O)c3c2)cc1 | 18100 | – | – | – | – | –
13 | O=c1[nH]ccc2cc(F)c(NS(=O)(=O)c3ccc(N4CCC(O)CC4)s3)cc12 | 13 | 21 | 0.25 | 4 | 0.05 | –
14 | O=c1ccc(-c2ccc(S(=O)(=O)Nc3cc4c(=O)[nH]ccc4cc3F)s2)c[nH]1 | < 5 | 62 | 0.09 | 1.7 | 0.05 | –
15 | N#Cc1ccc(S(=O)(=O)Nc2cc3c(=O)[nH]ccc3cc2F)cc1 | 723 | 1810 | 0.35 | – | – | pKa [14]: 5.97; logD [15]: 0.6; solubility thermodynamic at 20 h [16]: 10 µg/mL (≈ 29.1 µM); solubility thermodynamic at 20 h [17]: 20 µg/mL (≈ 58.3 µM); solubility thermodynamic at 20 h [18]: 230 µg/mL (≈ 670 µM); AUC [19]: 55800 ng·h/mL; clearance [20]: 2.34 mL/min/kg; bioavailability [21]: 79%
16 | CC1(C)CC(c2ccc(S(=O)(=O)Nc3cc4c(=O)[nH]ccc4cc3F)s2)=CNC1=O | < 5 | 10 | 0.09 | 30.6 | < 0.02 | CL free (Mus musculus [6]): 19 mL/min/kg; Vduss (Mus musculus [7]): 9 L/kg; fAUC (Mus musculus [8]): 2.159 µM·h; half-life [9]: 5.2 h; fCmax (Mus musculus [10]): 187 nM; bioavailability [11]: 23%
17 | CCC1(C)CC(c2ccc(S(=O)(=O)Nc3cc4c(=O)[nH]ccc4cc3F)s2)=CNC1=O (stereo not given) | < 5 | 4 | – | 10.5 | < 0.03 | –
18 | O=c1[nH]ccc2cc(F)c(NS(=O)(=O)c3ccc(N4C[C@@H](F)[C@@H](O)C4)s3)cc12 (stereo in doubt) | 20 | 17 | 0.17 | 12 | 0.05 | –
19 | O=c1[nH]ccc2cc(F)c(NS(=O)(=O)c3ccc(N4CCC[C@@H](O)C4)s3)cc12 | 26 | 68 | 0.17 | 1.7 | 0.03 | –
